Laboratory results reported in patent US9926354B2, “Amyloid precursor protein (APP) based Ã#-secretase inhibitor peptides, and methods of use” (UNIVERSITY OF SOUTH FLORIDA, priority 2014, dated 2018).
Several values for one entry are separate records, joined by “and”; a condition that tells them apart may be missing. Equal values may be shown once.

Tests used:
[1] = test system: CHO cells over-expressing human Swedish mutant APP (CHO/APPswe); experiment: Aβ and sAPPα production in cultured media of CHO/APPswe cells by ELISA; assay type: cell-based, Chinese hamster; details: 20 μg/mL, 24 hours
Method: (§1) Cell Culture—Chinese hamster ovary (CHO) cells engineered to express wild-type human APP (CHO/APPwt cells) or Swedish mutant human APP (CHO/APPswe cells) were kindly provided by Dr. Stefanie Hahn and Dr. Sascha Weggen (University of Heinrich Heine, Dusseldorf, Germany). As described previously (Obregon et al., 2012), these cells were cultured in Dulbecco's modified Eagle's medium (DMEM) with 10% fetal bovine serum (FBS), 1 mM sodium pyruvate, and 100 units/mL of penicillin and streptomycin.
(§2) To confirm the binding of APPsweBBP with BACE1, CHO/APPwt cells were plated in 8-well chambers (5×10^5/well), incubated with TAT-APPsweBBP-biotin or APPsweBBP-biotin at 20 μM for 30 minutes, fixed with 4% paraformaldehyde for 20 minutes, washed and permeabilized with 0.5% Triton X-100. Following application of blocking buffer, these cells were stained with mouse anti-BACE1 and rabbit anti-biotin antibodies overnight at 4° C. for immunocytochemistry analysis. In order to determine the inhibitory effects of TAT-APPsweBBP on BACE1-mediated APP β-cleavage and subsequent Aβ production, both CHO/APPwt and CHO/APPswe cells were plated in 24 well-plates (3×10^5/well) and treated with TAT-APPsweBBP at 0-20 μM for 24 hours. The cultured media were collected for Aβ analysis by enzyme-linked immunosorbent assay (ELISA) and sAPPα analysis by ELISA and Western blot (WB). Cell lysates were also prepared for analysis of APP amyloidogenic processing by WB.
(§3) ELISA—Mouse brains were homogenized in ice-cold lysis buffer for 30 seconds using a Minilys tissue homogenizer (Bertin Technologies, Montigny-le-Bretonneux, France) set at high speed, allowed to stand for 15 minutes at 4° C., and centrifuged at 15,000 rpm for 30 minutes. Soluble Aβ1-40/42 species and sAPPα were directly detected in cultured cell media or brain homogenates using the Aβ1-40/42 (Invitrogen) and sAPPα ELISA kits (IBL-America, Minneapolis, Minn., USA).
(§4) To further examine the ability of the Swedish mutant APP BACE1 binding peptide/Tat fusion peptides to decrease Aβ production, CHO cells overexpressing either human wild-type APP (CHO/APPwt cells) or Swedish mutant APP (hereinafter referred to as “CHO/APPswe cells”) are treated with a variety of APP-based BACE1 inhibitor peptides, as shown in Table 1 and Table 2. Aβ production is determined using ELISA.

[2] = test system: CHO cells over-expressing human wild-type APP (CHO/APPwt); experiment: Aβ and sAPPα production in cultured media of CHO/APPwt cells by ELISA (24 hours); assay type: cell-based, Chinese hamster; details: 20 μg/mL
Method: as §1
as §2, with “In order to determine the inhibitory effects of TAT-APPsweBBP on BACE1-mediated APP β-cleavage and subsequent Aβ production, both CHO/APPwt and CHO/APPswe cells were plated in 24 well-plates (3×10^5/well) and treated with TAT-APPsweBBP at 0-20 μM for 24 hours.” left out
as §3, §4

CHO/APPwt cells = experiment: Aβ production in CHO/APPwt cells by ELISA (Example 1, 4 hours); assay type: cell-based, Chinese hamster; details: 20 μg/mL
Method: To examine the effects of various Swedish Tat fusion peptides on Aβ production, human wild-type amyloid precursor protein (APP) is overexpressed in Chinese hamster ovary cells (hereinafter referred to as CHO/APPwt cells), and the cells are treated with either PBS control (Phosphate buffered saline); Swedish peptide-1 (SwePep-1), […] (also referred herein as “APPsweBBP1”) (SEQ ID NO: 5); Swedish peptide-2 (SwePep-2) (also referred herein as “APPsweBBP”), […] (SEQ ID NO: 1); Swedish Tat fusion peptide-1 (SweTatPep-1), […] (also referred herein as “APPsweBBP/TTD1”) (SEQ ID NO: 6); or Swedish Tat fusion peptide-2 (SweTatPep-2) (also referred herein as “APPsweBBP/TTD2” and “TAT-APPsweBBP”), […] (SEQ ID NO: 3). APPsweBBP is a truncated fragment of APPswe spanning 12 amino acid residues (Glu665-Arg676). TAT, an 11-amino acid-residue protein-transduction domain derived from the HIV-1 transactivator of transcription protein, was conjugated at the C-terminus of APPsweBBP and biotin was conjugated at the N-terminus.
Following treatment, Aβ production is determined utilizing ELISA and the results illustrated in FIG. 1A. SweTatPep-2, SwePep-2, SwePep-1 and SweTatPep-1 each reduce Aβ40,42 by 63-65%, 30-33%, 31-34% and 37-38%, respectively.

BACE1 = BACE1 (Homo sapiens, UniProt P56817); experiment: BACE1 activity assay (FRET, cell-free); assay type: biochemical; design: purchased Pan Vera Co., Madison, Wis., USA; details: peptide final concentration 20 μM, 90 minutes, room temperature
Method: BACE1 Activity Assay—The BACE1 inhibiting activity of APP-based BACE1 site binding peptides were determined using a fluorescence resonance energy transfer (FRET) assay (Pan Vera Co., Madison, Wis., USA), which employs a recombinant baculovirus-expressed BACE1 and a specific substrate (Rh-[…]-quencher) that is based on the APPswe mutation. This specific peptide substrate becomes highly fluorescent upon enzymatic cleavage. A mixture of 10 μL of BACE1 (1.0 U/mL in 50 mM Tris, pH7.5, 10% glycerol), 10 μL of FRET-substrate, and 10 μL of the various APP-based BACE1 site binding peptides (final concentration 20 μM) were incubated for 90 minutes in the dark at room temperature. Then, 10 μL of BACE1 stop buffer (2.5 M sodium acetate) was added to the mixture. Fluorescence was read using a fluorometer, with excitation at 545 nm and emission at 585 nm.
As a required enzyme for the generation of neurotoxic Aβ from APP, BACE1 is well established as an important mediator of AD β-amyloid pathology. As such, it has become an important target for new disease modifying therapeutics. However, since BACE1 also has important physiological roles, abolishment of the enzyme or its activity may lead to deleterious side effects as evidenced by numerous failed clinical trials discussed previously. […] Since previous studies have established a close relationship between α-helix structure and peptide-protein (or protein-protein) interactions (Azzarito, 2013; Rao et al., 2013), several APP based peptides were synthesized that might serve as a preferable substrate for BACE1. Importantly, these peptides were free of the Aβ-containing segment and, thus, cannot be amyloidogenic. In theory, these could be used to “hijack” the BACE1 processing of endogenous APP and lead to a decrease in cerebral Aβ. These BACE1 substrates and controls were incubated with recombinant BACE1 and percent of inhibition of the enzyme was calculated. […] These findings indicate that the α-helical TAT fusion domain may help to promote selective APPsweBBP proteolysis by BACE1, yielding substrate competition against human wild-type APP.

Chain of BACE1 (P56817 46-501): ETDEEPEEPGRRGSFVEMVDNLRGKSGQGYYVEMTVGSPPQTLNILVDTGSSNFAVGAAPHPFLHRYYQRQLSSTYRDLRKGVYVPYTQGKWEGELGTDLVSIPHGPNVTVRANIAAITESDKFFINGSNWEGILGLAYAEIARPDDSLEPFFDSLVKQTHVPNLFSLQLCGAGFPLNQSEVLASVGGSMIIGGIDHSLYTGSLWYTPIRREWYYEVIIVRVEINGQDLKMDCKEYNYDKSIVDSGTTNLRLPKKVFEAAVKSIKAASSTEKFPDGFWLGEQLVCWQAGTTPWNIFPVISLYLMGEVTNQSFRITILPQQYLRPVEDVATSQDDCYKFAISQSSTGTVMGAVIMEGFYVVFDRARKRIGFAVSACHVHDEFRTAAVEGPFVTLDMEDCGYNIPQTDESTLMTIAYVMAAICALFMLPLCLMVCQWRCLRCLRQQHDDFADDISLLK

Row | Sequence | Secreted Aβ42 (ng/mg; mean ± SD) [1] [ng/mg] | Secreted sAPPα (ng/mg; mean ± SD) [1] [ng/mg] | Secreted Aβ40 (ng/mg; mean ± SD) [2] [ng/mg] | Secreted Aβ42 (ng/mg; mean ± SD) [2] [ng/mg] | Secreted sAPPα (ng/mg; mean ± SD) [2] [ng/mg] | reduction of Aβ40,42 (CHO/APPwt cells) | Secreted Aβ40 (ng/mg; mean ± SD) [1] [ng/mg] | % of inhibition (mean ± SD) of BACE1 (BACE1) [%] | % of inhibition (mean ± SD) of BACE1 (BACE1; 20 µM)
1 | YGRKKRRQRRRIKTEEISEVNLDAEFR (human-virus fusion) [APPsweBBP/TTD1] | 7.98 ± 0.81 | 236.32 ± 13.09 | 8.93 ± 0.82 | 0.95 ± 0.037 | 4901.54 ± 211.54 | 37-38% | – | – | –
2 | EISEVKMDAEFR (listed as Homo sapiens) [APPwtBBP] | 9.78 ± 1.07 | 201.65 ± 11.54 | 10.89 ± 0.76 | 1.18 ± 0.051 | 4762.21 ± 164.89 | – | 59.84 ± 11.23 | 16.23 | –
3 | IKTEEISEVNLDAEFR (listed as Homo sapiens) [APPsweBBP1] | 9.01 ± 1.07 | 211.43 ± 18.31 | 9.67 ± 0.84 | 1.07 ± 0.054 | 4711.83 ± 201.45 | 31-34% | 57.23 ± 11.65 | – | –
4 | YGRKKRRQRRRIKTEEISEVKMDAEFR (human-virus fusion) [APPwtBBP/TTD1] | 7.82 ± 0.67 | 229.45 ± 12.73 | 9.32 ± 0.68 | 1.01 ± 0.052 | 4688.12 ± 109.65 | – | 64.21 ± 12.12 | – | –
5 | YGRKKRRQRRREVNLDAEFR (human-virus fusion) [APPsweBBP/TTD3] | 8.43 ± 0.95 | 211.37 ± 18.93 | 8.74 ± 0.55 | 0.93 ± 0.048 | 5001.45 ± 271.34 | – | 41.87 ± 5.76 | – | –
6 | YGRKKRRQRRREVKMDAEFR (human-virus fusion) [APPwtBBP/TTD3] | 9.56 ± 1.11 | 201.23 ± 21.23 | 10.12 ± 1.11 | – | 4699.15 ± 155.92 | – | 57.45 ± 13.11 | – | –
7 | EVNLDAEFR (listed as Homo sapiens) [APPsweBBP3] | 7.12 ± 0.84 | 231.26 ± 14.28 | 10.23 ± 0.73 | 0.92 ± 0.041 | 4709.43 ± 123.74 | – | – | 14.32 ± 0.04 | –
8 | YGRKKRRQRRREISEVKMDAEFR (human-virus fusion) [APPwtBBP/TTD2] | 6.78 ± 0.92 | 267.92 ± 15.88 | 6.53 ± 0.81 | 0.68 ± 0.034 | 5291.14 ± 142.75 | – | 40.32 ± 8.43 | 21.01 ± 1.42 | –
9 | EVKMDAEFR (listed as Homo sapiens) [APPwtBBP3] | 10.93 ± 1.98 | 199.83 ± 14.65 | 11.43 ± 1.01 | 1.09 ± 0.061 | 4699.78 ± 178.43 | – | 61.36 ± 8.34 | 4.89 ± 0.06 | –
10 | IKTEEISEVKMDAEFR (listed as Homo sapiens) [APPwtBBP1] | 8.91 ± 0.83 | 217.35 ± 17.32 | 11.23 ± 0.89 | 1.23 ± 0.043 | 4874.42 ± 174.56 | – | 62.43 ± 9.43 | – | –
11 | EISEVNLDAEFR (listed as Homo sapiens) [APPsweBBP2] | 6.54 ± 0.85 | 253.56 ± 20.11 | 7.01 ± 1.02 | 0.73 ± 0.034 | 5201.64 ± 119.63 | 30-33% | 41.41 ± 8.43 | – | ~40% and 38.43%
